Values of other authors in patent US20100260718A1, “IRF-4 AS A TUMOR SUPPRESSOR AND USES THEREOF” (Brandels University, priority 2007, published 2010).

Tests used:
[1] = test system: primitive CML progenitors
IRF-4 = details: patients with CML, downregulated before treatment

In the case of IFN-α, the “toxicity to the more primitive CML progenitors, relative to imatinib” value [1] is listed as “higher toxicity” and the IRF-4 expression (IRF-4) is listed as “restored”.
